Reference: patent US9073853B2, “Cycloalkane carboxylic acid derivatives as CXCR3 receptor antagonists” (Sanofi, priority 2011, dated 2015)

Biological target: human CXCR3-A receptor (Homo sapiens (Human), UniProt P49682)
Test: 125I-CXCL10 competition radioligand binding assay
Conditions: displacement of 125I-CXCL10 from membranes of CHO cells expressing human recombinant CXCR3-A
Method in brief: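 Membranes from a recombinant cell line expressing human CXCR3-A (10-20 μg protein) were incubated with 125I-CXCL10 and test compound for 60 min at 25° C, then filtered onto PEI-soaked GF/B filters and gamma-counted. IC50 and Hill slope came from four-parameter nonlinear fitting of competition curves.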

human CXCR3-A receptor, sequence (P49682 whole entry): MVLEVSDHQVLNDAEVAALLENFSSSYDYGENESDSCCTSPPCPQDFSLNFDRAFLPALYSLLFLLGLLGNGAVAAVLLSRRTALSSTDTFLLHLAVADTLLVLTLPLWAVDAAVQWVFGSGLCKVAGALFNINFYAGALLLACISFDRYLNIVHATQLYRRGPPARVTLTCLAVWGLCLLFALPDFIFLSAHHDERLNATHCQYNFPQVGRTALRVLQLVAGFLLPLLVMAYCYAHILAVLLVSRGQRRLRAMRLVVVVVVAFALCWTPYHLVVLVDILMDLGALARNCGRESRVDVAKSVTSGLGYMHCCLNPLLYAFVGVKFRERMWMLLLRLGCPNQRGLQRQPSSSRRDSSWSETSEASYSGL

| SMILES | IC50 [nM] |
| --- | --- |
| COc1cc(CN(C[C@@H]2CC[C@H](C(=O)O)C2)[C@H](C)c2ccc3c(c2)CCO3)ccc1OCCN1C(=O)CCC1=O [Example 108, (1S,3R)-3-[([(R)-1-(2,3-Dihydro-benzofuran-5-yl)-ethyl]-{4-[2-(2,5-dioxo-pyrrolidin-1-yl)-ethoxy]-3-methoxy-benzyl}-amino)-methyl]-cyclopentanecarboxylic acid] | 190 |
| COc1cc(CN(C[C@H]2CC[C@H](C(=O)O)C2)[C@H](C)c2ccc3c(c2)CCO3)ccc1OCCN1C(=O)CCC1=O [Example 109, (1S,3S)-3-[([(R)-1-(2,3-Dihydro-benzofuran-5-yl)-ethyl]-{4-[2-(2,5-dioxo-pyrrolidin-1-yl)-ethoxy]-3-methoxy-benzyl}-amino)-methyl]-cyclopentanecarboxylic acid] | 73 |
| COc1cc(CN(C[C@H]2CC[C@H](C(=O)O)C2)[C@@H](C)c2ccc3c(c2)CCO3)ccc1OCCN1C(=O)CCC1=O [Example 110, (1S,3S)-3-[([(S)-1-(2,3-Dihydro-benzofuran-5-yl)-ethyl]-{4-[2-(2,5-dioxo-pyrrolidin-1-yl)-ethoxy]-3-methoxy-benzyl}-amino)-methyl]-cyclopentanecarboxylic acid] | 525 |
| CCOC(=O)[C@@H]1C[C@H]1CN(Cc1ccc(OCCN2C(=O)CCC2=O)c(OC)c1)C(C)c1ccc2c(c1)CCO2 (stereo partly drawn) [Example 111, (1R,2R)-2-[([1-(2,3-Dihydro-benzofuran-5-yl)-ethyl]-{4-[2-(2,5-dioxo-pyrrolidin-1-yl)-ethoxy]-3-methoxy-benzyl}-amino)-methyl]-cyclopropanecarboxylic acid ethyl ester] | 646 |
| COc1cc(CN(C[C@@H]2C[C@H]2C(=O)O)C(C)c2ccc3c(c2)CCO3)ccc1OCCN1C(=O)CCC1=O (stereo partly drawn) [Example 112, (1R,2R)-2-[([1-(2,3-Dihydro-benzofuran-5-yl)-ethyl]-{4-[2-(2,5-dioxo-pyrrolidin-1-yl)-ethoxy]-3-methoxy-benzyl}-amino)-methyl]-cyclopropanecarboxylic acid] | 145 |
| CCOC(=O)[C@H]1C[C@H]1CN(Cc1ccc(OCCN2C(=O)CCC2=O)c(OC)c1)C(C)c1ccc2c(c1)CCO2 (stereo partly drawn) [Example 113, (1S,2R)-2-[([1-(2,3-Dihydro-benzofuran-5-yl)-ethyl]-{4-[2-(2,5-dioxo-pyrrolidin-1-yl)-ethoxy]-3-methoxy-benzyl}-amino)-methyl]-cyclopropanecarboxylic acid ethyl ester] | 82 |
| COc1cc(CN(C[C@@H]2C[C@@H]2C(=O)O)C(C)c2ccc3c(c2)CCO3)ccc1OCCN1C(=O)CCC1=O (stereo partly drawn) [Example 114, (1S,2R)-2-[([1-(2,3-Dihydro-benzofuran-5-yl)-ethyl]-{4-[2-(2,5-dioxo-pyrrolidin-1-yl)-ethoxy]-3-methoxy-benzyl}-amino)-methyl]-cyclopropanecarboxylic acid] | 180 |
| CCC(c1ccc(Cl)cc1)N(Cc1ccc(OCCN2C(=O)CN(C)C2=O)c(C)c1)C[C@@H]1[C@@H](C(=O)O)C1(C)C (stereo partly drawn) [Example 115, (1R,3R)-3-[([1-(4-Chloro-phenyl)-propyl]-{3-methyl-4-[2-(3-methyl-2,5-dioxo-imidazolidin-1-yl)-ethoxy]-benzyl}-amino)-methyl]-2,2-dimethyl-cyclopropanecarboxylic acid] | 244 |
| CCC(c1ccc(Cl)cc1)N(Cc1ccc(OCCN2C(=O)CN(C)C2=O)c(OC)c1)C[C@H]1[C@H](C(=O)O)C1(C)C (stereo partly drawn) [Example 116, (1S,3S)-3-[([1-(4-Chloro-phenyl)-propyl]-{3-methoxy-4-[2-(3-methyl-2,5-dioxo-imidazolidin-1-yl)-ethoxy]-benzyl}-amino)-methyl]-2,2-dimethyl-cyclopropanecarboxylic acid] | 160 |
| CCC(c1ccc(Cl)cc1)N(Cc1ccc(OCCN2C(=O)CCC2=O)c(OC)c1)C[C@H]1[C@H](C(=O)O)C1(C)C (stereo partly drawn) [Example 117, (1S,3S)-3-[([1-(4-Chloro-phenyl)-propyl]-{4-[2-(2,5-dioxo-pyrrolidin-1-yl)-ethoxy]-3-methoxy-benzyl}-amino)-methyl]-2,2-dimethyl-cyclopropanecarboxylic acid] | 71 |
| CCC(c1ccc(Cl)cc1)N(Cc1ccc(OCCN2C(=O)CCC2=O)c(C)c1)C[C@@H]1[C@@H](C(=O)O)C1(C)C (stereo partly drawn) [Example 118, (1R,3R)-3-[([1-(4-Chloro-phenyl)-propyl]-{4-[2-(2,5-dioxo-pyrrolidin-1-yl)-ethoxy]-3-methyl-benzyl}-amino)-methyl]-2,2-dimethyl-cyclopropanecarboxylic acid] | 190 |
| COc1cc(CN(CC2(C(=O)O)CC2)C2CCc3cc(Cl)ccc32)ccc1OCCN1C(=O)CCC1=O (centres unmarked) [Example 119, 1-[((5-Chloro-indan-1-yl)-{4-[2-(2,5-dioxo-pyrrolidin-1-yl)-ethoxy]-3-methoxy-benzyl}-amino)-methyl]-cyclopropanecarboxylic acid] | 3200 |
| COc1cc(CN(C(C)c2ccc3c(c2)CCO3)[C@H]2C[C@H](C(=O)O)C2)ccc1OCCn1c(=O)ccn(C)c1=O (stereo partly drawn) [Example 120, trans-3-([1-(2,3-Dihydro-benzofuran-5-yl)-ethyl]-{3-methoxy-4-[2-(3-methyl-2,6-dioxo-3,6-dihydro-2H-pyrimidin-1-yl)-ethoxy]-benzyl}-amino)-cyclobutanecarboxylic acid] | 2900 |
| COc1cc(CN(C(C)c2ccc3c(c2)CCO3)[C@H]2C[C@@H](C(=O)O)C2)ccc1OCCn1c(=O)ccn(C)c1=O (stereo partly drawn) [Example 121, cis-3-([1-(2,3-Dihydro-benzofuran-5-yl)-ethyl]-{3-methoxy-4-[2-(3-methyl-2,6-dioxo-3,6-dihydro-2H-pyrimidin-1-yl)-ethoxy]-benzyl}-amino)-cyclobutanecarboxylic acid] | 152 |
| COc1cc(CN([C@H]2C[C@@H](C(=O)O)C2)[C@H](C)c2ccc3c(c2)CCO3)ccc1OCCn1c(=O)ccn(C)c1=O [Example 122, cis-3-([(R)-1-(2,3-Dihydro-benzofuran-5-yl)-ethyl]-{3-methoxy-4-[2-(3-methyl-2,6-dioxo-3,6-dihydro-2H-pyrimidin-1-yl)-ethoxy]-benzyl}-amino)-cyclobutanecarboxylic acid] | 70 |
| COc1cc(CN([C@H]2C[C@@H](C(=O)O)C2)[C@@H](C)c2ccc3c(c2)CCO3)ccc1OCCn1c(=O)ccn(C)c1=O [Example 123, cis-3-([(S)-1-(2,3-Dihydro-benzofuran-5-yl)-ethyl]-{3-methoxy-4-[2-(3-methyl-2,6-dioxo-3,6-dihydro-2H-pyrimidin-1-yl)-ethoxy]-benzyl}-amino)-cyclobutanecarboxylic acid] | 7000 |
| Cc1cc(CN(C(C)c2ccc(Cl)c(F)c2)[C@H]2C[C@@H](C(=O)O)C2)ccc1OCCN1C(=O)CCC1=O (stereo partly drawn) [Example 125, cis-3-([1-(4-Chloro-3-fluoro-phenyl)-ethyl]-{4-[2-(2,5-dioxo-pyrrolidin-1-yl)-ethoxy]-3-methyl-benzyl}-amino)-cyclobutanecarboxylic acid] | 465 |
| COc1cc(CN(C2CC(C(=O)O)C2)C2CCc3cc(Cl)ccc32)ccc1OCCN1C(=O)CCC1=O (centres unmarked) [Example 127, 3-((5-Chloro-indan-1-yl)-{4-[2-(2,5-dioxo-pyrrolidin-1-yl)-ethoxy]-3-methoxy-benzyl}-amino)-cyclobutanecarboxylic acid] | 1090 |
| Cc1cc([C@@H](C)N(Cc2ccc(OCCN3C(=O)CCC3=O)c(C)c2)[C@H]2C[C@@H](C(=O)O)C2)ccc1Cl [Example 129, cis-3-([(R)-1-(4-Chloro-3-methyl-phenyl)-ethyl]-{4-[2-(2,5-dioxo-pyrrolidin-1-yl)-ethoxy]-3-methyl-benzyl}-amino)-cyclobutanecarboxylic acid] | 105 |
| Cc1cc([C@H](C)N(Cc2ccc(OCCN3C(=O)CCC3=O)c(C)c2)[C@H]2C[C@H](C(=O)O)C2)ccc1Cl [Example 130] | 5300 |
| Cc1cc([C@H](C)N(Cc2ccc(OCCN3C(=O)CCC3=O)c(C)c2)[C@H]2C[C@@H](C(=O)O)C2)ccc1Cl [Example 131, cis-3-([(S)-1-(4-Chloro-3-methyl-phenyl)-ethyl]-{4-[2-(2,5-dioxo-pyrrolidin-1-yl)-ethoxy]-3-methyl-benzyl}-amino)-cyclobutanecarboxylic acid] | 6500 |
| Cc1cc(CN([C@H]2C[C@@H](C(=O)O)C2)[C@H](C)c2ccc(Cl)cc2)ccc1OCCN1C(=O)CCC1=O [Example 132, cis-3-([(R)-1-(4-Chloro-phenyl)-ethyl]-{4-[2-(2,5-dioxo-pyrrolidin-1-yl)-ethoxy]-3-methyl-benzyl}-amino)-cyclobutanecarboxylic acid] | 170 |
| Cc1cc(CN(C2CCc3cc(Cl)ccc32)[C@H]2C[C@@H](C(=O)O)C2)ccc1OCCN1C(=O)CCC1=O (stereo partly drawn) [Example 133, cis-3-((5-Chloro-indan-1-yl)-{4-[2-(2,5-dioxo-pyrrolidin-1-yl)-ethoxy]-3-methyl-benzyl}-amino)-cyclobutanecarboxylic acid] | 1640 |
| Cc1cc(CN(C(C)c2ccc3c(c2)CCO3)[C@H]2C[C@@H](C(=O)O)C2)ccc1OCCn1c(=O)ccn(C)c1=O (stereo partly drawn) [Example 134, cis-3-([1-(2,3-Dihydro-benzofuran-5-yl)-ethyl]-{3-methyl-4-[2-(3-methyl-2,6-dioxo-3,6-dihydro-2H-pyrimidin-1-yl)-ethoxy]-benzyl}-amino)-cyclobutanecarboxylic acid] | 240 |

Same assay, conditions: read-out: % at 10 μM; at 10 μM; displacement of 125I-CXCL10

| SMILES | inhibition at 10 µM [%] |
| --- | --- |
| Cc1cc(CN(C(C)c2ccc(Cl)c(F)c2)[C@H]2C[C@H](C(=O)O)C2)ccc1OCCN1C(=O)CCC1=O (stereo partly drawn) [Example 124, trans-3-([1-(4-Chloro-3-fluoro-phenyl)-ethyl]-{4-[2-(2,5-dioxo-pyrrolidin-1-yl)-ethoxy]-3-methyl-benzyl}-amino)-cyclobutanecarboxylic acid] | 24 |
| Cc1cc([C@@H](C)N(Cc2ccc(OCCN3C(=O)CCC3=O)c(C)c2)[C@H]2C[C@H](C(=O)O)C2)ccc1Cl [Example 128, trans-3-([(R)-1-(4-Chloro-3-methyl-phenyl)-ethyl]-{4-[2-(2,5-dioxo-pyrrolidin-1-yl)-ethoxy]-3-methyl-benzyl}-amino)-cyclobutanecarboxylic acid] | 37 |
